# Laboratory results taken from patent EP3037527A1, “Sialyltransferase without CMP-dependent sialidase activity” (F. Hoffmann-La Roche AG, priority 2014, dated 2016).
# How the values were obtained:
# [1] = target: T1, α-2,6-sialyltransferase from rat liver (Rattus norvegicus, UniProt P13721); conditions: each inhibitor tested at a concentration of 0.25 mM; cited from earlier work
# T1 construct: host or cells: rat liver
# T1 sequence (P13721 1-403): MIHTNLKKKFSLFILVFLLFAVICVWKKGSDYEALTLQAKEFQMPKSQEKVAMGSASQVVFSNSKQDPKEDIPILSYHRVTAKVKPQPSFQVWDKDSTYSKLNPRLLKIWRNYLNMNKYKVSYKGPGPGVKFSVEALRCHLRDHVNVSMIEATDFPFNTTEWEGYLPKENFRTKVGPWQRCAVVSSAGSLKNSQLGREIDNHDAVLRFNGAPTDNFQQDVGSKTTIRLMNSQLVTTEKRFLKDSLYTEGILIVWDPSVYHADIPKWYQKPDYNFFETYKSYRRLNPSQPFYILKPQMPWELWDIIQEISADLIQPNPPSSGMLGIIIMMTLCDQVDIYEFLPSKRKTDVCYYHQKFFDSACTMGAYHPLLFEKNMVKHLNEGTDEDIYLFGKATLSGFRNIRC
# Δ89 hST6Gal-I = target: T2, Δ89 hST6Gal-I (Homo sapiens, UniProt P15907); test: Inhibition of sialidase activity of Δ89 hST6Gal-I by CTP; format: biochemical
# T2 construct: Erythropoietin signal peptide (Epo) (N, cleaved yes); AP spacer (two amino acids) (N, cleaved yes); made in house; host or cells: HEK 293 cells (transient expression, secreted)
# T2 sequence (P15907 90-406): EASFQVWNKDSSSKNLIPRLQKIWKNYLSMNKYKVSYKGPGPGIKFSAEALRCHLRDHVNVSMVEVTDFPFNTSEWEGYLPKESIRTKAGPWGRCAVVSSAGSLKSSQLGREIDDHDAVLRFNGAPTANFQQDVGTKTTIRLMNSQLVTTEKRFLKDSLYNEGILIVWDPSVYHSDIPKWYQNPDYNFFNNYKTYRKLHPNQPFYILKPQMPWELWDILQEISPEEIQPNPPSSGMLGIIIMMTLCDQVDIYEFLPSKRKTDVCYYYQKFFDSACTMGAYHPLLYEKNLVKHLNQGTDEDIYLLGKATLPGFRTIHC
# Description: A highly galactosylated humanized monoclonal antibody IgG4 MAB was used in sialylation experiments. The reaction mixture contained IgG4 MAB (300 µg in 55 µL 35 mM sodium actetate/Tris buffer pH 7.0), the donor substrate CMP-NANA (150 µg in 50 µL water) and sialyltransferase (30 µg Δ89 hST6Gal-I in 20 mM potassium phosphate, 0.1 M NaCl, pH 6.5). The samples were incubated at 37°C for a defined time. To stop the reaction the samples were frozen at -20°C. For mass analysis 100 µL denaturing buffer (6 M guanidinium chloride) and 30 µL TCEP (= tris(2-carboxyethyl)phosphine; 0.1 mM, diluted in denaturing buffer) were added to the samples and the samples were incubated at 37°C for 1 h. The samples were buffered in electrospray medium [20% ACN (= acetonitrile), 1% FA (= […])] using pre-equilibrated illustra™ Nap5-Columns (GE-Healthcare). Samples were analyzed by electrospray ionization mass spectrometry and the content of G2+0SA, G2+1SA and G2+2SA N-glycans was determined. A Micromass Q-Tof Ultima and a Synapt G2 HDMS device (Waters UK) were used, the software used was MassLynx V 4.1. […]
# The compound cytidine-5'-triphosphate (CTP) is a known potent inhibitor of sialyltransferases (Scudder PR & Chantler EN BBA 660 (1981) 136-141). […] At different times samples were taken and the content of G2+0SA, G2+1SA and G2+2SA was determined by mass spectrometry. […]
"degradation of G2+2SA caused by the sialidase activity (Δ89 hST6Gal-I; CTP 0.67 mM, compared to inhibitor-free conditions)","G2+2SA still present (Δ89 hST6Gal-I; after 72 h of incubation, CTP added after 7 h, final concentration 0.67 mM)",Structure (SMILES),"inhibition of α-2,6-sialyltransferase [1]"
–,–,Nc1ccn([C@@H]2O[C@H](CO)[C@@H](O)[C@H]2OP(=O)(O)O)c(=O)n1 [2'-CMP],40%
significantly reduced,73%,"Nc1ccn([C@@H]2O[C@H](COP(=O)(O)OP(=O)(O)OP(=O)(O)O)[C@@H](O)[C@H]2O)c(=O)n1 [CTP, cytidine-5'-triphosphate]",–
–,–,Nc1ccn([C@@H]2O[C@H](CO)[C@@H](O)[C@H]2O)c(=O)n1 [Cytidine],70%
–,–,Nc1ccn([C@@H]2O[C@H](CO)[C@@H](OP(=O)(O)O)[C@H]2O)c(=O)n1 [3'-CMP],39%
–,–,"Nc1ccn([C@@H]2O[C@H](COP(=O)(O)O)[C@@H](O)[C@H]2O)c(=O)n1 [5'-CMP, Cytidine monophosphate]",71%
